Patent US20100273714A1, “PEPTIDE COMPOUNDS FOR TREATING REFRACTORY STATUS EPILEPTICUS” (SCHWARZ PHARMA AG, priority 2006, published 2010)

What was measured:
[1] = test system: status epilepticus induced epileptogenesis (spontaneous recurrent seizures) in perforant path stimulated rats; assay: Long term (disease-modifying) effects: spontaneous recurrent seizures at least 6 months after SSSE induction, EEG/video monitoring; assay type: in vivo; conditions: for spike frequency: early treatment, controls 9534±1114; for number of spontaneous recurrent seizures (SRSs) per week: treatment 10 min after perforant path stimulation, vehicle 110±8; for number of seizures per week: not statistically significant
Method: (§1) The following indices were used to quantify seizure activity: cumulative seizure time (duration of SSSE, subtracting interictal time) and the number of seizure episodes. In addition the number of spontaneous seizures was measured 6 months following induction of SSSE in order to assess status epilepticus induced epileptogenesis.
SSSE was induced in rats as described in Example 1. After SSSE induction, and at least 6 months wait (“silent period”) the animals were placed in EEG/telemetry/videotape continuously for two weeks for chronic EEG and video monitoring, but the second week, which was more remote from anaesthesia and surgery, was used to calculate seizure frequency (24 hours/day×7). Electrographic seizures were captured by the Harmony software, and were confirmed by offline manual review of the EEG and videotapes. The following indices were counted: total number of spikes of seizures for 7 days of observation, mean seizure duration, light/dark distribution.

[2] = test system: self-sustaining status epilepticus (SSSE) in perforant path stimulated rats; assay: Perforant path stimulation model of self-sustaining status epilepticus (acute seizure activity); assay type: in vivo, Male Wistar rats
Method: Male Wistar rats were implanted with a stimulating electrode into the angular bundle of the perforant path and a recording electrode into the granule cell layer of the dentate gyrus. Perforant path stimulation (PPS) was delivered for 30 or 60 minutes with the following parameters: 10 s, 20 Hz trains of 1 ms, 30 V pulses delivered every minute together with continuous 2 Hz stimulation with the same parameters.
as §1

[3] = test system: status epilepticus in the rat lithium/pilocarpine model; assay: Lithium/pilocarpine model of status epilepticus; assay type: in vivo, Rats
[4] = test system: self-sustaining status epilepticus (SSSE) in perforant path stimulated rats; conditions: Mazarati et al. 1999, cited from earlier work; for effectiveness against SSSE, delayed administration (in words): administration delayed / later in status epilepticus; for effectiveness against SSSE, early administration (in words): given before or at onset of SSSE / within the first 10 min of status epilepticus
[5] = 50 mg/kg i.p., treatment initiated 40 minutes after PPS, FIG. 1
[6] = 50 mg/kg, administered 40 min after onset of SSSE
[7] = given 10 min after perforant path stimulation, doses 10 mg/kg and above

## COC[C@@H](NC(C)=O)C(=O)NCc1ccccc1 [lacosamide, (R)-2-acetamido-N-benzyl-3-methoxypropionamide]
[1]; 3 mg/kg group
  spike frequency: 7557±1945 spikes/week
[1]; 3 mg/kg
  number of spontaneous recurrent seizures (SRSs) per week: 85±5 SRS/week
[1]; 10 mg/kg
  number of spontaneous recurrent seizures (SRSs) per week: 66±8 SRS/week
[1]; 10 mg/kg, treatment 40 min after perforant path stimulation, control 110±8
  number of seizures per week: 100±7 seizures per week
[1]; 30 mg/kg group
  spike frequency: 2969±542 spikes/week
[1]; 30 mg/kg group, treatment 40 min after perforant path stimulation
  median number of seizures: 0
[1]; 30 mg/kg
  number of spontaneous recurrent seizures (SRSs) per week: 42±8 SRS/week
[1]; 30 mg/kg, treatment 40 min after perforant path stimulation, control 110±8
  number of seizures per week: 67±67 seizures per week
[1]; 50 mg/kg group
  spike frequency: 2588±370 spikes/week
[1]; 50 mg/kg group, treatment 40 min after perforant path stimulation
  median number of seizures: 0
[1]; 50 mg/kg
  number of spontaneous recurrent seizures (SRSs) per week: 34±6 SRS/week
[1]; 50 mg/kg, treatment 40 min after perforant path stimulation, control 110±8
  number of seizures per week: 45±29 seizures per week
[1]; 30-50 mg/kg, 6 months after induction of SSSE, vehicle 100%
  percentage of rats developing chronic epilepsy / spontaneous recurrent seizures: 30%
[1]; 30-50 mg/kg, after six months, vehicle average 110 seizures per week
  reduction of number of seizures per week (seizure frequency): 60%
[1]; "mg/kg" group (dose not given)
  spike frequency: 3536±380 spikes/week
[1]; treatment 40 min after perforant path stimulation, two higher dosage groups combined, control 6/6, p<0.05
  number of animals showing spontaneous recurrent seizures: 3/9
[1]; treatment 40 min after perforant path stimulation, two highest treatment groups combined, control 110±8
  seizure numbers per week: 55±32 seizures per week
[2]; [5]
  cumulative seizure duration (in words): substantial reduction
  seizure frequency (in words): substantial reduction
[2]; [6]
  reduction in cumulative seizure duration: 40%
  reduction in seizure frequency: 40%
[2]; given 10 min after perforant path stimulation
  anticonvulsant effect (in words): effective as an anticonvulsant
[2]; [7]
  cumulative time spent seizing after treatment (in words): reduced
  number of seizures (in words): reduced the number of seizures
[2]; late treatment, 40 min after perforant path stimulation
  number of seizures (in words): non-significant reduction
[3]; 50 mg/kg, 10 minutes after onset of status epilepticus
  motor seizure symptoms (in words): reduced motor seizure symptoms

## O=C1NC(=O)C(c2ccccc2)(c2ccccc2)N1 [phenytoin]
[4]
  effectiveness against SSSE, delayed administration (in words): lost their effectiveness
  effectiveness against SSSE, early administration (in words): highly effective

## CN1C(=O)CN=C(c2ccccc2)c2cc(Cl)ccc21 [diazepam]
[3]; administered 15 min after onset of status epilepticus
  efficacy of diazepam alone (in words): ineffective
[4]
  effectiveness against SSSE, delayed administration (in words): lost their effectiveness
  effectiveness against SSSE, early administration (in words): highly effective
